Measurements reported in the OPERA property sets (Mansouri et al. 2018).

| Compound | logP |
| --- | --- |
| CNC(=O)ON=C1SCSC1C (centres undefined) | 0.91 |
| CNC(=O)ON=C1SCCSC1(C)C | 1.51 |
| CNC(=O)ON=C1COCCS1 | 0 |
| CNC(=O)ON=C1SCSC1(C)C | 1.31 |
| CNC(=O)ON=C1SCOC1(C)C | 0.82 |
| CNC(=O)ON=C1CSCCS1 | 0.49 |
| CNC(=O)ON=C1SCOC1CCOC (centres undefined) | 0.51 |
| CNC(=O)ON=C1CSC(C)(C)S1 | 1.33 |
| CNC(=O)ON=C1COCS1 | 0.06 |
| CCCC1OCSC1=NOC(=O)NC (centres undefined) | 1.52 |
| CNC(=O)ON=C1SCOC1C(C)C (centres undefined) | 1.48 |
| CNC(=O)ON=C1SC(C)OC1C (centres undefined) | 0.96 |
| CNC(=O)ON=C1SCOC1C (centres undefined) | 0.46 |
| CNC(=O)ON=C1CSCS1 | 0.51 |
